Marks after values point to notes of the source that are not given here. Square brackets hold non-standard residues; d marks the D form. Peptide text beside a SMILES is read from it.
Assays:
[1] = Solubility noted in the compound description; format: physicochemical; conditions: water and DMSO
Male Swiss Webster mice = assay: Mouse acetic acid-induced writhing test (i.c.v. peptides); format: in vivo; conditions: for Potency ratio (95% CL): as compared with HN; for AD50 (nmol/mouse) (95% CL): method #2, percent analgesia; for AD50 (nmol/mouse) (95% CL) / ED50 (nmol/mouse) (95% CL): acetic acid i.p. 5 min after peptide, 95% CL in brackets; for ED50 (nmol/mouse) (95% CL): method #1, percent of mice showing analgesia
Experimental: Mice (male 20-25 g, Swiss Webster) were obtained from Charles River (Canadian Breeding Farm, St. Constant, Quebec). They were housed five per cage in a room with controlled temperature (22±2° C.), humidity and artificial light (06.30-19 h). […] The experiments were authorized by the animal care committee of the University of Ottawa in accordance […] guidelines of the Canadian Council on Animal Care. The i.c.v. administrations of the peptides were performed as described by Shukla et al. (Shukla et al., Brain Res. 591, 176, 1992 the disclosure of which is incorporated by reference). Peptides were dissolved in double-distilled sterile water (vehicle) and 10 μl of the peptide solution or vehicle was delivered gradually within approximately 3 sec. […] The administration site was confirmed by injecting Indian ink in preliminary experiments. Mouse Writhing Test: Antinociceptive activity of the peptides was evaluated using the acetic acid-induced writhing test according to a modification (Shukla et al. Brain Research 591, 176, 1992 the disclosure of which is incorporated by reference) of the method of Hayashi and Takemori (Eur.J. Pharmacol. 16 63, 1971 the disclosure of which is incorporated by reference). […] An abdominal stretch is characterized by the contraction of the abdominal muscles, the arching of the back vent-ally such that the abdomen touches the bedding surface and the extension of one or both hind limbs. Mice were used once and then killed immediately. Groups of 10 mice were used for each dose. […] Biochem. Psycholpharmacol. 8:191, 1974, the disclosure of which is incorporated by reference). […] Pharmacol. Exp. Ther. 96 99, 1949, the disclosure of which is incorporated by reference) using procedure 47 of the computer program of Tallarida and Murray (in “Manual of pharmacological calculations with computer programs”, 2nd ed., Springer, New York, 1987, the disclosure of which is incorporated by reference). In the second case (method #2), the percentage of analgesia is calculated for each dose by the formula: [(mean number of writhes in control group-mean number of writhes for the test group)/(mean number of writhes in control group)×100]. […] Pharmacol. Exp. Ther 96, 99, 1949 the disclosure in which is incorporated by reference) using procedure 47 of the computer program of Tallarida and Murray (in “Manual of pharmacological calculations with computer programs”. 2nd ed., Springer, New York, 1987, the disclosure in which is incorporated by reference).

Row | Molecule | Solubility [1] | Potency ratio (95% CL) (Male Swiss Webster mice; method #2 (AD50)) | AD50 (nmol/mouse) (95% CL) (Male Swiss Webster mice) | Potency ratio (95% CL) (Male Swiss Webster mice; method #1 (ED50)) | ED50 (nmol/mouse) (95% CL) (Male Swiss Webster mice)
1 | NC(=O)CC[C@H]1NC(=O)CNC(=O)[C@@H](CCCN=C(N)N)NC(=O)[C@H](Cc2ccc(O)cc2)NC1=O [Peptide 9, cyclic(-Gly-D-Gln-Tyr-D-Arg-)] (cyclo(G[dQ]Y[dR])) | Soluble in water and DMSO |  |  |  | 
2 | N=C(N)NCCC[C@H]1NC(=O)[C@H](Cc2ccc(O)cc2)NC(=O)[C@@H](CCC(N)=O)NC(=O)CNC1=O [Peptide 9, cyclic(-Gly-D-Gln-Tyr-D-Arg-)] (cyclo(G[dQ]Y[dR])) |  | 10.6 (3.6-31.0)* | 2.23 (1.45-3.43) nmol/mouse |  | 
3 | C[C@@H]1NC(=O)[C@H](CCC(N)=O)NC(=O)[C@H](CCCNC(=N)N)NC(=O)[C@H](CCCNC(=N)N)NC1=O [Peptide 6, cyclic(-Arg-Gln-Ala-Arg-)] | Soluble in water and DMSO | 0.94 (0.22-3.98) | 25.1 (11.3-55.6) nmol/mouse |  | 
4 | C[C@H](NC(=O)[C@H](CCC(N)=O)NC(=O)CN)C(=O)N[C@@H](CCCN=C(N)N)C(=O)O [Peptide 3, H-Gly-Gln-Ala-Arg-OH] (H-GQAR-OH) | Soluble in water and DMSO |  |  |  | 
5 | C[C@H](NC(=O)[C@H](CCC(N)=O)NC(=O)CN)C(=O)N[C@@H](CCCNC(=N)N)C(=O)O [Peptide 3, H-Gly-Gln-Ala-Arg-OH] (H-GQAR-OH) |  | 6.92 (0.84-56.2)* | 3.41 (0.8-14.6) nmol/mouse | 5.7 (2.0-15.9) | 3.9 (1.7-9.1) nmol/mouse
6 | N=C(N)NCCC[C@H](NC(=O)CNC(=O)[C@H](CCC(N)=O)NC(=O)[C@@H](N)CCCNC(=N)N)C(=O)O [Peptide 1, H-Arg-Gln-Gly-Arg-OH] (H-RQGR-OH) | soluble in water and DMSO | 1.84 (0.3-12.5) | 12.8 (3.6-46.1) nmol/mouse |  | 
7 | N=C(N)NCCC[C@H](NC(=O)CNC(=O)[C@H](CCC(N)=O)NC(=O)CN)C(=O)O [Peptide 2, H-Gly-Gln-Gly-Arg-OH] (H-GQGR-OH) | Soluble in water and DMSO | 0.91 (0.11-7.63) | 25.9 (5.9-113) nmol/mouse | 2.0 (0.6-6.3) | 11.3 (4.2-30.4) nmol/mouse
8 | H-RQGRTLYGF-OH [Peptide 13] |  | 2.43 (0.2-18) | 9.7 (2.5-37.4) nmol/mouse | 3.0 (0.8-11.2) | 7.5 (2.3 -24.4) nmol/mouse
9 | C[C@@H]1NC(=O)[C@H](CCC(N)=O)NC(=O)CNC(=O)[C@H](CCCNC(=N)N)NC1=O [Peptide 5, cyclic(-Gly-Gln-Ala-Arg-)] (cyclo(ARGQ)) | Soluble in water and DMSO | 1.77 (0.11-28.1) | 13.3 (1.6-114) nmol/mouse | 7.7 (1.3-46.6) | 2.9 (0.8 -9.8) nmol/mouse
10 | NC(=O)CC[C@@H]1NC(=O)CNC(=O)[C@H](CCCN=C(N)N)NC(=O)[C@H](Cc2ccc(O)cc2)NC1=O [Peptide 7, cyclic(-Gly-Gln-Tyr-Arg-)] (cyclo(GQYR)) | Soluble in water and DMSO |  |  |  | 
11 | N=C(N)NCCC[C@H]1NC(=O)[C@H](Cc2ccc(O)cc2)NC(=O)[C@H](CCC(N)=O)NC(=O)CNC1=O [Peptide 8, cyclic(-Gly-Gln-Tyr-D-Arg-)] (cyclo(GQY[dR])) |  | 5.35 (1.04-26.4)* | 4.41 (1.7-11.9) nmol/mouse |  | 
12 | C[C@H](NC(=O)[C@H](CCC(N)=O)NC(=O)[C@@H](N)CCCNC(=N)N)C(=O)N[C@@H](CCCNC(=N)N)C(=O)O [Peptide 4, H-Arg-Gln-Ala-Arg-OH] | Soluble in water and DMSO | 1.86 (0.27-12.8) | 12.7 (3.5-46.1) nmol/mouse | 4.5 (1.4-14.3) | 4.9 (1.8-13.2) nmol/mouse
13 | N=C(N)NCCC[C@@H]1NC(=O)[C@H](Cc2ccc(O)cc2)NC(=O)[C@H](CCC(N)=O)NC(=O)CNC1=O [Peptide 7, cyclic(-Gly-Gln-Tyr-Arg-)] (cyclo(GQYR)) |  | 5.6 (1.25-25)* | 4.21 (1.80-9.87) nmol/mouse |  | 
14 | C[C@@H]1NC(=O)[C@H](CCC(N)=O)NC(=O)CNC(=O)[C@H](CCCNC(=N)N)NC(=O)[C@H](C)NC(=O)[C@H](CCC(N)=O)NC(=O)CNC(=O)[C@H](CCCNC(=N)N)NC1=O [Peptide 5B] (cyclo(ARGQARGQ)) | Soluble in water and DMSO | 0.93 (0.22-3.9) | 25.3 (11.6-55.1) nmol/mouse |  | 
15 | C[C@@H]1NC(=O)[C@H](CCC(N)=O)NC(=O)[C@H](CCCNC(=N)N)NC(=O)[C@H](CCCNC(=N)N)NC(=O)[C@H](C)NC(=O)[C@H](CCC(N)=O)NC(=O)[C@H](CCCNC(=N)N)NC(=O)[C@H](CCCNC(=N)N)NC1=O [Peptide 6B] (cyclo(ARRQARRQ)) | Soluble in water and DMSO |  |  |  | 
